The results in this text go back to PubChem BioAssay (NCI).

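The compound was tested at five concentrations on cells cultured in 96-well plates, with a 48-hour exposure period. TGI: concentration producing complete growth inhibition.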

Test systems include OVCAR-5 ovarian; SNB-19 CNS; UACC-62 melanoma; OVCAR-4 ovarian; A549 NSCLC; SK-MEL-2 melanoma; COLO 205 colon; SK-MEL-5 melanoma; NCI-H226 lung; DU-145 prostate.
What all share (experiment): growth of human tumour cells (NCI), 48 h

For `CCSCN(C)c1nc(N(C)C)nc(N(C)C)n1`, the TGI with OVCAR-5 ovarian, in the experiment on SNB-19 CNS, in the experiment on UACC-62 melanoma, in the experiment with OVCAR-4 ovarian, with A549 NSCLC and in the experiment on SK-MEL-2 melanoma was above 100 µM throughout. In addition, the TGI with COLO 205 colon and with SK-MEL-5 melanoma was above 100 µM each time.
Turning to `COc1cc(C2C(Cl)C(=O)N2NC(=O)c2ccc(NC(C)=O)cc2)ccc1O` (stereo unspecified), the TGI in the experiment with OVCAR-5 ovarian, in the experiment on SNB-19 CNS, in the experiment with UACC-62 melanoma, with OVCAR-4 ovarian, with NCI-H226 lung and with A549 NSCLC was above 100 µM in each case. For the same compound, the TGI in the experiment with SK-MEL-2 melanoma, in the experiment with COLO 205 colon and in the experiment on SK-MEL-5 melanoma was above 100 µM throughout.
As to `Cc1ccc(S(=O)(=O)NC(=O)NC(CCCCN=C(N)N)C(=O)O)cc1` (stereo unspecified), the TGI with SNB-19 CNS, in the experiment on UACC-62 melanoma, with OVCAR-4 ovarian, in the experiment with A549 NSCLC, in the experiment with SK-MEL-2 melanoma and with COLO 205 colon was above 100 µM each time. In addition, the TGI in the experiment on DU-145 prostate and in the experiment on SK-MEL-5 melanoma was above 100 µM each time.
Regarding `Cn1c([C@H](C#N)C(=O)c2cc(O)ccc2[N+](=O)[O-])nc2ccccc21`, the TGI in the experiment on OVCAR-5 ovarian, in the experiment on SNB-19 CNS, with UACC-62 melanoma, in the experiment with OVCAR-4 ovarian, in the experiment with A549 NSCLC and with SK-MEL-2 melanoma was above 100 µM in each case. Further, the TGI in the experiment on COLO 205 colon, in the experiment with DU-145 prostate and with SK-MEL-5 melanoma was above 100 µM each time.
For the compound `CCOC(=O)c1cc2c(OCc3ccccc3)c(OC)cc3c2c(n1)N(c1ccc(OC)cc1)C(C)C3` (stereo unspecified), the TGI with OVCAR-5 ovarian, in the experiment on SNB-19 CNS, with UACC-62 melanoma, with OVCAR-4 ovarian, in the experiment on A549 NSCLC and with SK-MEL-2 melanoma was above 50 µM throughout. The TGI in the experiment on COLO 205 colon and in the experiment with SK-MEL-5 melanoma was above 50 µM each time.
`C[S+](C)CC1OC(n2cnc3c(N)ncnc32)C(O)C1O` (stereo unspecified): the TGI was above 225 µM in the experiment with OVCAR-5 ovarian; above 225 µM in the experiment on SNB-19 CNS; above 200 µM with UACC-62 melanoma; above 225 µM in the experiment on OVCAR-4 ovarian; above 225 µM in the experiment on NCI-H226 lung; above 225 µM in the experiment on A549 NSCLC. Moreover, the TGI with SK-MEL-2 melanoma, in the experiment with COLO 205 colon and with SK-MEL-5 melanoma was above 225 µM in each case.
For `CN(C)CCNC(=O)c1cccc2cc3cc(O)ccc3nc12`, the TGI in the experiment with OVCAR-5 ovarian is 4.32 µM; in the experiment with SNB-19 CNS, 3.53 µM; in the experiment on UACC-62 melanoma it was 2.74 µM; in the experiment with OVCAR-4 ovarian, 6.58 µM; in the experiment with NCI-H226 lung it was 2.48 µM; in the experiment on A549 NSCLC, 3.47 µM. For the same compound, the TGI in the experiment with SK-MEL-2 melanoma was found to be 3.81 µM; with COLO 205 colon, 3.88 µM; in the experiment with SK-MEL-5 melanoma, 2.48 µM.
`Cc1c(OCc2ccccc2)c(=O)ccn1CCc1c[nH]c2ccccc12`: the TGI is above 100 µM in the experiment with OVCAR-5 ovarian; above 100 µM with SNB-19 CNS; 87.3 µM in the experiment with UACC-62 melanoma; above 100 µM with A549 NSCLC; 48.2 µM in the experiment with SK-MEL-2 melanoma; 32.1 µM with COLO 205 colon. The TGI was above 100 µM with DU-145 prostate and 35.3 µM in the experiment with SK-MEL-5 melanoma.
Turning to `CC1(C)C2CCC3(OCCO3)C1C(O)C2` (stereo unspecified), the TGI in the experiment with OVCAR-5 ovarian, in the experiment with SNB-19 CNS, with UACC-62 melanoma, with OVCAR-4 ovarian, in the experiment with NCI-H226 lung and in the experiment on A549 NSCLC was above 100 µM in each case. Moreover, the TGI in the experiment on SK-MEL-2 melanoma and in the experiment on SK-MEL-5 melanoma was above 100 µM in each case.
In the case of `COc1ccc(C2OCCN2C)cc1` (stereo unspecified), the TGI with OVCAR-5 ovarian, in the experiment on SNB-19 CNS, with UACC-62 melanoma, with OVCAR-4 ovarian, with NCI-H226 lung and with A549 NSCLC was above 100 µM throughout. Also, the TGI in the experiment with SK-MEL-2 melanoma, with COLO 205 colon and with SK-MEL-5 melanoma was above 100 µM in each case.
Take `O=NN(CCF)C(=O)NC1CC2CCC1C2` (stereo unspecified): the TGI in the experiment on OVCAR-5 ovarian, with SNB-19 CNS, in the experiment with UACC-62 melanoma, in the experiment on OVCAR-4 ovarian, in the experiment on A549 NSCLC and with SK-MEL-2 melanoma was above 100 µM each time. Moreover, the TGI in the experiment with COLO 205 colon and in the experiment with SK-MEL-5 melanoma was above 100 µM throughout.
`Cc1nc2n(c1/C=C1/C(=O)Nc3ccccc31)CCS2`: the TGI in the experiment with OVCAR-5 ovarian is above 100 µM; with SNB-19 CNS it was above 100 µM; in the experiment on UACC-62 melanoma it was above 100 µM; in the experiment on OVCAR-4 ovarian it was above 100 µM; with A549 NSCLC, above 100 µM; with SK-MEL-2 melanoma, 26.2 µM. Also, the TGI in the experiment on COLO 205 colon was 47.6 µM; in the experiment with DU-145 prostate, above 100 µM; in the experiment with SK-MEL-5 melanoma, above 100 µM.
In the case of `COc1ccc2c(c1)OCCc1cn[nH]c1-2`, the TGI was above 100 µM in the experiment with OVCAR-5 ovarian; above 100 µM in the experiment on SNB-19 CNS; 84.3 µM in the experiment with UACC-62 melanoma; above 100 µM in the experiment on OVCAR-4 ovarian; above 100 µM in the experiment with A549 NSCLC; above 100 µM in the experiment on SK-MEL-2 melanoma. The TGI in the experiment on COLO 205 colon and in the experiment on SK-MEL-5 melanoma was above 100 µM in each case.
Consider `N=C(N)SCCC(=O)CCSC(=N)N`, for which the TGI with SNB-19 CNS, in the experiment on OVCAR-4 ovarian, in the experiment on NCI-H226 lung, in the experiment on A549 NSCLC, in the experiment with COLO 205 colon and with DU-145 prostate was above 100 µM throughout. For the same compound, the TGI in the experiment with SK-MEL-5 melanoma was above 100 µM.
On to `COc1ccc2nc3c(c(NCCCN(C)C)c2c1)CCCC3`, for which the TGI with OVCAR-5 ovarian worked out at 35.6 µM; in the experiment with SNB-19 CNS it was 48.8 µM; in the experiment on UACC-62 melanoma, 31.2 µM; in the experiment with OVCAR-4 ovarian, 18.5 µM; in the experiment with NCI-H226 lung it was 30.7 µM; in the experiment with A549 NSCLC, 49.9 µM. The TGI with SK-MEL-2 melanoma was 37.1 µM; in the experiment with COLO 205 colon, 23 µM; in the experiment on SK-MEL-5 melanoma, 29.2 µM.
